Source: patent publication US20170334804A1, “F-18 LABELED TRACER AND METHODS OF MANUFACTURE” (The General Hospital Corporation, priority 2014, published 2017)

Test system: patients with stable coronary artery disease (CAD)
Experiment: PET/CT myocardial perfusion imaging in patients with stable CAD, compared with 99mTc Sestamibi SPECT and CTA
Type: in vivo, human
Details: for detecting areas of reversible myocardial perfusion: PET with FTPP vs SPECT with 99mTc Sestamibi, baseline and post-adenosine
Protocol: One of the objectives of this study: the PET image properties of FTPP as a myocardial perfusion agent were evaluated in patients with stable coronary artery disease (CAD).
Patients with stable CAD were included in a 3 day study protocol. Safety endpoints included vital signs, 12 lead ECG and clinical laboratory tests. Imaging was performed with Siemens Biograph 64 PET/CT scanner and imaging entailed a CT for positioning, attenuation measurement and evaluation of coronary artery anatomy (day-1). This was followed by baseline and post-adenosine SPECT imaging with ^99mTc Sestamibi. On day 2, 10 mCi of FTPP was administered followed by a second 10 mCi dose of FTPP and PET/CT imaging.

| extraction from blood (patients with stable CAD) | heart uptake over time (patients with stable CAD) | imaging window after injection (patients with stable CAD) | target-to-background ratios (patients with stable CAD) | SMILES | image resolution, stress PET vs stress MIBI SPECT (FIG. 2, person with chest pain) | stress images, detection of ischemia (FIG. 3, stress images) | detecting areas of reversible myocardial perfusion | blood flow imaging properties (patients with stable CAD, preliminary findings) | safety (vital signs, 12 lead ECG, clinical laboratory tests) |
| --- | --- | --- | --- | --- | --- | --- | --- | --- | --- |
| rapid | stable | ≤ 30 min | high | Fc1ccc([P+](c2ccccc2)(c2ccccc2)c2ccccc2)cc1 [FTPP, 4-[^18F]Fluorophenyltriphenylphosphonium ion] | high resolution | confirming ischemia | similarly effective | excellent | safe |
|  |  |  |  | [C-]#[N+]CC(C)(C)OC.[C-]#[N+]CC(C)(C)OC.[C-]#[N+]CC(C)(C)OC.[C-]#[N+]CC(C)(C)OC.[C-]#[N+]CC(C)(C)OC.[C-]#[N+]CC(C)(C)OC.[Tc] [^99mTc Sestamibi, reference compound] |  |  | similarly effective |  |  |
